{
  "source": "paper PMC4501119",
  "about": "“Cholestenoic acid, an endogenous cholesterol metabolite, is a potent γ-secretase modulator” (Molecular Neurodegeneration, 2015)",
  "key": {"[1]": {"test_system": "Aβ42 in CHO-2B7 cells (CHO cells stably overexpressing APP695)", "test": "Cell-based Aβ sandwich ELISA of conditioned media from CHO-2B7 cells treated 16 h", "set-up": "species or system Chinese hamster", "procedure": "(§1) Chinese hamster ovary (CHO) cells stably overexpressing APP695 (CHO-2B7 cells) were grown in Ham’s F-12 medium (Life Technologies) supplemented with 10 % fetal bovine serum and 100 units/ml of penicillin and 100 μg/ml streptomycin. Cells were grown at 37 °C in a humidified atmosphere containing 5 % CO2 in tissue culture plates (Costar). The cells were harvested at confluence and then utilized for biochemical analyses. Compounds were dissolved in dimethyl sulfoxide (DMSO) and screened in CHO-2B7 cells. The cells were incubated for 16 h in the presence of the compound diluted into OptiMEM-reduced serum medium (Life Technologies, Carlsbad, CA, USA) containing 1 % fetal bovine serum.\nMonoclonal antibodies to Aβ were generated by the Mayo Clinic Immunology Core facilities (Jacksonville, FL, USA). Ab5 recognizes an epitope in the amino terminus of Aβ (Aβ1-16), recognizes both monomeric and aggregated Aβ, and is human specific. […] Ab 2.1.3 was raised against Aβ35-42 and is specific for Aβx-42. […] Total Aβ level was determined by capture with Ab5 and detected with horseradish peroxidase (HRP)-conjugated 4G8 (a monoclonal antibody against Aβ17-24; Covance, Waltham, MA, USA) with the other Aβ peptides detected with HRP-conjugated Ab5. For the cell-free assay and measuring mouse endogenous Aβ, HRP-conjugated 4G8 was used as the secondary detection antibody. Aβ standards (Bachem, King of Prussia, PA, USA) were prepared by dissolving in hexafluoroisopropanol (HFIP) at 1 mg/ml with sonication, dried under nitrogen, resuspended at 2 mg/ml HFIP, sonicated again and dried under nitrogen. The resulting Aβ was resuspended in 0.01 % ammonium hydroxide, portioned into aliquots in EC buffer, and frozen at −80 °C."}, "[2]": {"test_system": "Aβ peptides in CHO-2B7 cells", "test": "IP/MS (MALDI-TOF) Aβ profile of CHO-2B7 conditioned media", "type": "cell-based, Chinese hamster", "settings": "3 μM, vs DMSO control", "procedure": "as §1\nConditioned media from the CHO-2B7 cells and the samples prepared from in vitro γ-secretase studies were used to analyze Aβ and AICD profiles using matrix-assisted laser desorption/ionization time of flight (MALDI-TOF) mass spectrometry analysis. The secreted Aβ peptides were analyzed as previously described with the following modifications. Briefly, the Aβ peptides were immunoprecipitated using Ab5 recognizing the Aβ1-16 epitope and sheep anti-mouse IgG magnetic Dynabeads (Life Technologies, catalog no. 11201D) and the AICD fragments were captured using anti-Flag M2 magnetic beads (Sigma). […] Samples were analyzed using a Bruker Microflex LRF-MALDI-TOF mass spectrometer."}, "γ-secretase": {"biological_target": "T1, γ-secretase (Homo sapiens, UniProt P49768)", "T1 construct": "The membrane derived from the H4 neuroglioma cells overexpressing APP695wt were prepared by carbonate extraction; endogenous in cells; host or cells: H4 neuroglioma cells overexpressing APP695wt (membranes, carbonate extraction)", "test": "In vitro γ-secretase assay with recombinant C100Flag and CHO S-1 membrane, Aβ and AICD spectra by MALDI-TOF", "type": "biochemical", "settings": "20 μM", "procedure": "Broken cell assays were performed with slight modifications from the previous studies. The membrane derived from the H4 neuroglioma cells overexpressing APP695wt were prepared by carbonate extraction and incubated at 37 °C for 2 h with CA at various concentrations. Aβ levels were quantified by sandwich ELISAs. For Aβ and AICD spectra, the recombinant C100Flag proteins were overexpressed and purified from Escherichia coli BL21 using a HiTrap Q-column (GE Life Science, Little Chalfont, U.K.). The membrane containing γ-secretase was isolated from the CHO S-1 cell line using sodium carbonate (100 mM, pH 11.0). For the in vitro γ-secretase assay, C100Flag recombinant protein at 25 μM was incubated with the membrane (100 μg/mL) in the presence of CA (20 μM) and DMSO in 150 mM sodium citrate buffer (pH 6.8) containing complete protease inhibitor (Roche, Indianapolis, IN) for 2 h at 37 °C.\nConditioned media from the CHO-2B7 cells and the samples prepared from in vitro γ-secretase studies were used to analyze Aβ and AICD profiles using matrix-assisted laser desorption/ionization time of flight (MALDI-TOF) mass spectrometry analysis. The secreted Aβ peptides were analyzed as previously described with the following modifications. […] Samples were analyzed using a Bruker Microflex LRF-MALDI-TOF mass spectrometer."}, "[3]": {"test": "Tolerability of IP doses in mice", "type": "in vivo, mouse", "settings": "up to the highest dose 100 mg/kg", "procedure": "25(R)-CA powder was initially dissolved in DMSO (<4.5 % in the final mixture) and then combined with polyethylene glycol (15)-hydroxystearate (Solutol), ethanol, and water at a ratio of (15:10:75). One molar equivalent of sodium hydroxide was added to the mixture. We performed CA intraperitoneal (IP) injections to wild-type mice (C57BL/6 or CF-1). The mice were injected with 25(R)-CA on the right side of the abdomen. The injections have been performed with various time points (30 min, 1 h, 2 h, and 3 h) and with multiple doses (30 mg per kg (mg/kg), 60 mg/kg, 75 mg/kg and 100 mg/kg). The number of each cohort is 6–8. We used 30 mg/kg of CA for the time-course experiments, and for the dose–response experiments the end-point was set at 30 min. The brains and serum are harvested and frozen for brain Aβ extraction."}, "[4]": {"set-up": "method as in PMID 10428977", "settings": "in humans; cited from earlier work"}, "[5]": {"settings": "CHO-2B7 cells, dose response, ELISA"}},
  "data": [
    {"smiles": "CC(CCC[C@@H](C)C(=O)O)[C@H]1CCC2C3CC=C4C[C@@H](O)CC[C@]4(C)C3CC[C@@]21C", "note": "(stereo partly drawn) [Cmpd 2a, 25(R)-cholestenoic acid]", "values": [
      {"measurement": "Aβ38 level", "setting": "[1]; [5]", "result": "increased"},
      {"measurement": "total Aβ level", "setting": "[1]; [5]", "result": "without alterations"},
      {"measurement": "EC50", "setting": "[1]; Cricetulus griseus, CHO-2B7, 16 h, lowering Aβ42, CHO-2B7 cells, 16 h, ELISA", "result": "~250", "unit": "nM"},
      {"measurement": "EC90", "setting": "[1]; Cricetulus griseus, decreasing Aβ42, CHO-2B7 cells", "result": 3000, "unit": "nM"},
      {"measurement": "Aβ spectra by mass spectrometry", "setting": "[2]", "result": "increased Aβ38 peak and decreased Aβ42 peak with no significant changes in Aβ40 peak"},
      {"measurement": "ε-site utilizations (AICD49-99 and AICD50-99)", "setting": "γ-secretase; vs DMSO control", "result": "did not affect"},
      {"measurement": "Aβ spectra (MALDI-TOF)", "setting": "γ-secretase; vs DMSO treated control", "result": "decrease Aβ42 peak and increase Aβ38 peak"},
      {"measurement": "tolerability", "setting": "[3]", "result": "well tolerated"},
      {"measurement": "half-life (T1/2)", "setting": "[4]", "result": 1.5, "unit": "h"}
    ]}
  ]
}
